# Data: patent US7208500B2, “Thienopyridine-phenylacetamides and their derivatives useful as new anti-angiogenic agents” (Agouron Pharmaceuticals, Inc., priority 2003, dated 2007)
# Tests used:
# [1] = biological target: T1, unphosphorylated VEGF-R2D50 (FLVK), cytosolic domain of human VEGF-R2 (Homo sapiens, UniProt P35968, DEL940-989/E990V); assay: VEGF-R2 coupled spectrophotometric assay (FLVK); type: biochemical
# T1 construct: VEGF-R2D50 contains residues 806–939 and 990–1171; made in house; host or cells: baculovirus/insect cell system
# T1 sequence (P35968 with tags, fused parts or gaps DEL940-989/E990V limits assumed): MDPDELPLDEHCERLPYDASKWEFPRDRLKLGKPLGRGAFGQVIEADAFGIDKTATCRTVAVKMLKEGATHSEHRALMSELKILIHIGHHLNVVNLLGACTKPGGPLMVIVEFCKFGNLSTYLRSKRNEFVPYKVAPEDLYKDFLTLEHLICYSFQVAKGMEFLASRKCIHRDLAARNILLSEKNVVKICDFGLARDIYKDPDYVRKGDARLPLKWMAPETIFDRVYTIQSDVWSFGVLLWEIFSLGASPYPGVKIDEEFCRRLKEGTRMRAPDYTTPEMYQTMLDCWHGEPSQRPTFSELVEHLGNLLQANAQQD
# Text: This construct determines the ability of a test compound to inhibit tyrosine kinase activity. A construct (VEGF-R2D50) of the cytosolic domain of human vascular endothelial growth factor receptor 2 (VEGF-R2) lacking the 50 central residues of the 68 residues of the kinase insert domain was expressed in a baculovirus/insect cell system. Of the 1356 residues of full-length VEGF-R2, VEGF-R2D50 contains residues 806–939 and 990–1171, and also one point mutation (E990V) within the kinase insert domain relative to wild-type VEGF-R2. Autophosphorylation of the purified construct was performed by incubation of the enzyme at a concentration of […] in the presence of 3 mM ATP and 40 mM MgCl2 in 100 mM HEPES, pH 7.5, containing 5% glycerol and 5 mM DTT, at 4° C. for 2 h. […] See Parast et al., Biochemistry, 37, 16788–16801 (1998).
# The production of ADP from ATP that accompanies phosphoryl transfer was coupled to oxidation of NADH using phosphoenolpyruvate (PEP) and a system having pyruvate kinase (PK) and lactic dehydrogenase (LDH). The oxidation of NADH was monitored by following the decrease of absorbance at 340 nm (e340=6.22 cm^−1 mM^−1) using a Beckman DU 650 spectrophotometer. Assay conditions for phosphorylated VEGF-R2D50 (indicated as FLVK-P in the tables below) were the following: 1 mM PEP; […]; 50 units of LDH/mL; 20 units of PK/mL; 5 mM DTT; 5.1 mM poly(E4Y1); 1 mM ATP; and 25 mM MgCl2 in 200 mM HEPES, pH 7.5. Assay conditions for unphosphorylated VEGF-R2D50 (indicated as FLVK in the tables) were the following: 1 mM PEP; […]; 50 units of LDH/mL; 20 units of PK/mL; 5 mM DTT; 20 mM poly(E4Y1); 3 mM ATP; and 60 mM MgCl2 and 2 mM MnCl2 in 200 mM HEPES, pH 7.5. Assays were initiated with 5 to 40 nM of enzyme. Ki values were determined by measuring enzyme activity in the presence of varying concentrations of test compounds. The percent inhibition at 50 nm (% inhibition@50 nm) was determined by linear least-squares regression analysis of absorpbance as a function of time. The binding inhibitions were fitted to equation as described by Morrison. The data were analyzed using Enzyme Kinetic and Kaleidagraph software.
# [2] = biological target: T2, FGF-R1 intracellular kinase domain (Homo sapiens, UniProt P11362, C488A/C584S/L457V); assay: FGF-R spectrophotometric assay; type: biochemical; conditions: 50 nM test compound; read-out: FGF-P (% inh @ 50 nM)
# T2 construct: starting from the endogenous methionine residue 456 to glutamate 766; made in house; host or cells: baculovirus vector expression system
# T2 sequence (P11362 456-766 L457V/C488A/C584S): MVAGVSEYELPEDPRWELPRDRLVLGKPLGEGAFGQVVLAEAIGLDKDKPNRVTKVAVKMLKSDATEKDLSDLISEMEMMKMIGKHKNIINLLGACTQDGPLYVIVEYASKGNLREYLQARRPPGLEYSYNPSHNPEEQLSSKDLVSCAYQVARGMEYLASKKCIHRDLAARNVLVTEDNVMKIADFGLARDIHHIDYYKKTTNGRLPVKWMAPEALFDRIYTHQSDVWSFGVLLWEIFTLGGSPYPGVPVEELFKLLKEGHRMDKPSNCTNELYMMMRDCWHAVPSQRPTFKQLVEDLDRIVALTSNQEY
# Method: The intracellular kinase domain of human FGF-R1 was expressed using the baculovirus vector expression system starting from the endogenous methionine residue 456 to glutamate 766, according to the residue numbering system of Mohammadi et al., Mol. Cell. Biol., 16, 977–989 (1996). In addition, the construct also has the following 3 amino acid substitutions: L457V, C488A, and C584S.
# The spectrophotometric assay was carried out as described above for VEGF-R2, except for the following changes in concentration: FGF-R=50 nM, ATP=2 mM, and poly(E4Y1)=15 mM.
SMILES,Ki [1] [nM],inhibition at 0.05 µM [2] [%]
"CNC(=O)Cc1ccc(Oc2ccnc3cc(C(=O)N4CC[C@@H](O)C4)sc23)c(F)c1 [Example 2, 2-{3-Fluoro-4-[2-((R)-3-hydroxy-pyrrolidine-1-carbonyl)-thieno[3,2-b]pyridin-7-yloxy]-phenyl}-N-methyl-acetamide]",> 10,0 to 5
"O=C(Nc1ccccn1)C(O)c1ccc(Oc2ccnc3cc(C(=O)N4CCC4)sc23)cc1 (stereo not shown) [Example 84, 2-{4-[2-(Azetidine-1-carbonyl)-thieno[3,2-b]pyridin-7-yloxy]-phenyl}-2-hydroxy-N-pyridin-2-yl-acetamide]",> 10,5 to 10
"CCCCNC(=O)C(O)c1ccc(Oc2ccnc3cc(C(=O)N4CCC4)sc23)cc1 (stereo not shown) [Example 82, 2-{4-[2-(Azetidine-1-carbonyl)-thieno[3,2-b]pyridin-7-yloxy]-phenyl}-N-butyl-2-hydroxy-acetamide]",> 10,0 to 5
"Cc1cc(C)nc(NC(=O)Cc2ccc(Oc3ccnc4cc(-c5nccn5C)sc34)c(F)c2)c1 [Example 1, N-(4,6-Dimethyl-pyridin-2-yl)-2-{3-fluoro-4-[2-(1-methyl-1H-imidazol-2-yl)-thieno[3,2-b]pyridin-7-yloxy]-phenyl}-acetamide]",< 1,0 to 5
"CNC(=O)C(O)c1ccc(Oc2ccnc3cc(C(=O)N4CC[C@@H](OC)C4)sc23)cc1 (stereo partly drawn) [Example 77, 2-Hydroxy-2-{4-[2-((R)-3-methoxy-pyrrolidine-1-carbonyl)-thieno[3,2-b]pyridin-7-yloxy]-phenyl}-N-methyl-acetamide]",> 10,0 to 5
"O=C(Cc1ccc(Oc2ccnc3cc(C(=O)N4CCC4)sc23)cc1)Nc1ccon1 [Example 42, 2-{4-[2-(Azetidine-1-carbonyl)-thieno[3,2-b]pyridin-7-yloxy]-phenyl}-N-isoxazol-3-yl-acetamide]",> 10,0 to 5
"CNC(=O)C(O)c1ccc(Oc2ccnc3cc(-c4nccn4C)sc23)cc1Cl (stereo not shown) [Example 73, 2-{2-Chloro-4-[2-(1-methyl-1H-imidazol-2-yl)-thieno[3,2-b]pyridin-7-yloxy]-phenyl}-2-hydroxy-N-methyl-acetamide]",,0 to 5
"O=C(Cc1ccc(Oc2ccnc3cc(C(=O)N4CCC4)sc23)cc1)Nc1ccncc1 [Example 35, 2-{4-[2-(Azetidine-1-carbonyl)-thieno[3,2-b]pyridin-7-yloxy]-phenyl}-N-pyridin-4-yl-acetamide]",> 10,0 to 5
"Cc1cccnc1NC(=O)Cc1ccc(Oc2ccnc3cc(C(=O)N4CCC4)sc23)cc1 [Example 26, 2-{4-[2-(Azetidine-1-carbonyl)-thieno[3,2-b]pyridin-7-yloxy]-phenyl}-N-(3-methyl-pyridin-2-yl)-acetamide]",> 10,
"Cc1coc(NC(=O)Cc2ccc(Oc3ccnc4cc(C(=O)N5CCC5)sc34)cc2Cl)n1 [Example 54, 2-{4-[2-(Azetidine-1-carbonyl)-thieno[3,2-b]pyridin-7-yloxy]-2-chloro-phenyl}-N-(4-methyl-oxazol-2-yl)-acetamide]",> 10,0 to 5
"O=C(Cc1ccc(Oc2ccnc3cc(C(=O)N4CCC4)sc23)cc1Cl)NCCCN1CCOCC1 [Example 57, 2-{4-[2-(Azetidine-1-carbonyl)-thieno[3,2-b]pyridin-7-yloxy]-2-chloro-phenyl}-N-(3-morpholin-4-yl-propyl)-acetamide]",> 10,0 to 5
"CNC(=O)C(=O)c1ccc(Oc2ccnc3cc(C(=O)N4CC[C@@H](OC)C4)sc23)cc1 [Example 78, 2-{4-[2-((R)-3-Methoxy-pyrrolidine-1-carbonyl)-thieno[3,2-b]pyridin-7-yloxy]-phenyl}-N-methyl-2-oxo-acetamide]",> 10,> 10
"CNC(=O)C(O)c1ccc(Oc2ccnc3cc(C(=O)N4CC[C@@H](O)C4)sc23)cc1Cl (stereo partly drawn) [Example 71, 2-{2-Chloro-4-[2-((R)-3-hydroxy-pyrrolidine-1-carbonyl)-thieno[3,2-b]pyridin-7-yloxy]-phenyl}-2-hydroxy-N-methyl-acetamide]",> 10,0 to 5
"CNC(=O)C1(c2ccc(Oc3ccnc4cc(C(=O)N5CC[C@@H](O)C5)sc34)cc2)CC1 [Example 67, 1-{4-[2-((R)-3-Hydroxy-pyrrolidine-1-carbonyl)-thieno[3,2-b]pyridin-7-yloxy]-phenyl}-cyclopropanecarboxylic acid methylamide]",> 10,0 to 5
"CNC(=O)C(OC)c1ccc(Oc2ccnc3cc(-c4nccn4C)sc23)cc1Cl (stereo not shown) [Example 72, 2-{2-Chloro-4-[2-(1-methyl-1H-imidazol-2-yl)-thieno[3,2-b]pyridin-7-yloxy]-phenyl}-2-methoxy-N-methyl-acetamide]",,0 to 5
"COC(C(=O)Nc1cc(C)no1)c1ccc(Oc2ccnc3cc(C(=O)N4CCC4)sc23)cc1 (stereo not shown) [Example 79, 2-{4-[2-(Azetidine-1-carbonyl)-thieno[3,2-b]pyridin-7-yloxy]-phenyl}-2-methoxy-N-(3-methyl-isoxazol-5-yl)-acetamide]",> 10,0 to 5
"CNC(=O)Cc1ccc(Oc2ccnc3cc(C(=O)N4CC[C@H](OC)C4)sc23)cc1 [Example 68, 2-{4-[2-((S)-3-Methoxy-pyrrolidine-1-carbonyl)-thieno[3,2-b]pyridin-7-yloxy]-phenyl}-N-methyl-acetamide]",> 10,0 to 5
"CNC(=O)C(O)c1ccc(Oc2ccnc3cc(-c4nc(C(C)(C)O)cs4)sc23)cc1 (stereo not shown) [Example 75, 2-Hydroxy-2-(4-{2-[4-(1-hydroxy-1-methyl-ethyl)-thiazol-2-yl]-thieno[3,2-b]pyridin-7-yloxy}-phenyl)-N-methyl-acetamide]",> 10,0 to 5
"Cc1cc(C)nc(NC(=O)Cc2ccc(Oc3ccnc4cc(C(=O)N(C)CCCN(C)C)sc34)cc2)c1 [Example 5, 7-{4-[(4,6-Dimethyl-pyridin-2-ylcarbamoyl)-methyl]-phenoxy}-thieno[3,2-b]pyridine-2-carboxylic acid (3-dimethylamino-propyl)-methyl-amide]",,0 to 5
"CNC(=O)C(OC)c1ccc(Oc2ccnc3cc(C(=O)N4CC[C@@H](O)C4)sc23)cc1Cl (stereo partly drawn) [Example 70, 2-{2-Chloro-4-[2-((R)-3-hydroxy-pyrrolidine-1-carbonyl)-thieno[3,2-b]pyridin-7-yloxy]-phenyl}-2-methoxy-N-methyl-acetamide]",> 10,5 to 10
"Cc1cc(NC(=O)Cc2ccc(Oc3ccnc4cc(C(=O)N5CCC5)sc34)cc2)n[nH]1 [Example 39, 2-{4-[2-(Azetidine-1-carbonyl)-thieno[3,2-b]pyridin-7-yloxy]-phenyl}-N-(5-methyl-1H-pyrazol-3-yl)-acetamide]",,0 to 5
"O=C(Cc1ccc(Oc2ccnc3cc(C(=O)N4CCC4)sc23)cc1)Nc1cc[nH]n1 [Example 40, 2-{4-[2-(Azetidine-1-carbonyl)-thieno[3,2-b]pyridin-7-yloxy]-phenyl}-N-(1H-pyrazol-3-yl)-acetamide]",> 10,0 to 5
"Cc1ccc(CNC(=O)Cc2ccc(Oc3ccnc4cc(-c5nccn5C)sc34)cc2Cl)o1 [Example 58, 2-{2-Chloro-4-[2-(1-methyl-1H-imidazol-2-yl)-thieno[3,2-b]pyridin-7-yloxy]-phenyl}-N-(5-methyl-furan-2-ylmethyl)-acetamide]",> 10,0 to 5
"CNC(=O)Cc1ccc(Oc2ccnc3cc(C(=O)N4CCC4)sc23)cc1Cl [Example 63, 2-{4-[2-(Azetidine-1-carbonyl)-thieno[3,2-b]pyridin-7-yloxy]-2-chloro-phenyl}-N-methyl-acetamide]",> 10,0 to 5
